{"source": "patent US20230346785A1", "about": "“4-PYRROLIDIN-1-Yl-5-P-TOLYL-THIENO[2,3-D] PYRIMIDINE FOR USE IN THE TREATMENT OF AGING-ASSOCIATED AND PREMATURE AGING DISEASES THROUGH RESTORED CHROMOSOMAL STABILITY AND INHIBITION OF CELLULAR SENESCENCE” (IBMC - INSTITUTO DE BIOLOGIA MOLECULAR E CELULAR, priority 2020, published 2023)", "format_in_all_cases": "cell-based", "key": {"[1]": {"test_system": "elderly human dermal fibroblasts (HDF)", "experiment": "Calcium-stable k-fiber intensity analysis in metaphase", "details": "1 µM", "experimental": "Human dermal fibroblasts (HDFs) retrieved from skin samples of neonatal (No. GM21811, Coriell Institute; No. DFM021711A, Zen Bio) and octogenarian (No. AG07135; AG13993; AG09271; AG10884; all from Coriell Institute) were used. All donors were reported as “healthy”. For all experiments, HDFs were seeded at 1x10^4 cells per cm2 of growth area in minimal essential medium Eagle-Earle (MEM) supplemented with 15% fetal bovine serum (FBS), 2 mM L-glutamine, and 1x antibiotic-antimycotic (all from Gibco, Thermo Fisher Scientific). Only early passage dividing fibroblasts (up to passage 3-5) with cumulative population doubling level PDL < 24 were used. […]\nIn fluorescence microscopy, cells with calcium-stabilized k-fibers or stained for specific kinetochore/centromere-bound proteins (Aurora B/Aim-1, Hec1/Ndc80, MCAK, Plk1, pAuroraB T232 and ACA) were imaged using a Zeiss AxioImager Z1 (Carl Zeiss, Oberkochen, Germany) motorized upright epifluorescence microscope, equipped with an Axiocam MR camera and operated by the Zeiss Axiovision v4.7 software. […]\n(§1) For image analysis, both live-cell phenotypes (mitotic duration, lagging chromosomes) and fixed-cell experiments (protein intensity, k-fiber intensity, KT distances, FISH, MN counts, cGAS positivity and SA biomarkers) were blindly quantified using ImageJ/Fiji software. […] DNA aggregates co-localizing with cGAS were scored as MN positive for cGAS. […]"}, "[2]": {"test_system": "neonatal (N) human dermal fibroblasts (HDF)", "experiment": "Mitotic duration by long-term phase-contrast time-lapse microscopy, neonatal cells", "details": "1 µM, 24 hrs (FIG. 4A)", "experimental": "(§2) Human dermal fibroblasts (HDFs) retrieved from skin samples of neonatal (No. GM21811, Coriell Institute; No. DFM021711A, Zen Bio) and octogenarian (No. AG07135; AG13993; AG09271; AG10884; all from Coriell Institute) were used. All donors were reported as “healthy”. For all experiments, HDFs were seeded at 1x10^4 cells per cm2 of growth area in minimal essential medium Eagle-Earle (MEM) supplemented with 15% fetal bovine serum (FBS), 2 mM L-glutamine, and 1x antibiotic-antimycotic (all from Gibco, Thermo Fisher Scientific). Only early passage dividing fibroblasts (up to passage 3-5) with cumulative population doubling level PDL < 24 were used.\nas §1, with “cGAS. For the analysis of SA biomarkers (53bpl/p21 and SA-β-galactosidase), fluorescence intensity thresholds were set and used consistently for all samples within each experiment.” for “cGAS.”\n(§3) FIG. 4: Small molecule agonist of MCAK activity UMK57 rescues age-associated CIN and delays senescence. […] (D) Aneusomy index of chromosomes 7, 12 and 18 measured by interphase FISH analysis. […]"}, "[3]": {"test_system": "elderly human dermal fibroblasts (HDF)", "experiment": "Cyto-D FISH chromosome mis-segregation in cytokinesis-blocked binucleated (BN) cells", "details": "1 µM", "experimental": "as §2\nProteasome inhibitor MG-132 (474790, EMD Millipore) was used at 5 µM for 2 hrs to arrest cells at the metaphase stage. Cytochalasin D (C8273, Sigma-Aldrich) was used at 1 µM for 24 hrs to block cytokinesis. Fibroblasts were treated with 2.5 µM STLC (2191, TOCRIS) for 5 hrs to inhibit kinesin-5 activity and induce monopolar spindles, followed by a washout into fresh medium with 500 nM of Aurora kinase B inhibitor ZM447439 (S1103, Selleckchem) to potentiate chromosome segregation errors. […]\n(§4) FISH was used to score aneusomy indexes (Interphase FISH; FIGS. 4D, 5C) and chromosome mis-segregation (MS) rates. MS rates were scored by Cyto-D FISH (FIGS. 4E and 5D), or by FISH on STLC-washed-out fibroblasts (FIGS. 1G,H). […]"}, "[4]": {"test_system": "elderly human dermal fibroblasts (HDF)", "experiment": "Mitotic duration by long-term phase-contrast time-lapse microscopy, elderly cells", "experimental": "as §2\nas §1, with “cGAS. For the analysis of SA biomarkers (53bpl/p21 and SA-β-galactosidase), fluorescence intensity thresholds were set and used consistently for all samples within each experiment.” for “cGAS.”\nas §3"}, "[5]": {"test_system": "elderly human dermal fibroblasts (HDF)", "experiment": "SA-β-galactosidase activity assay", "details": "1 µM", "experimental": "as §2\nas §1, with “cGAS. For the analysis of SA biomarkers (53bpl/p21 and SA-β-galactosidase), fluorescence intensity thresholds were set and used consistently for all samples within each experiment.” for “cGAS.”"}, "[6]": {"test_system": "elderly human dermal fibroblasts (HDF)", "experiment": "Interphase FISH aneusomy index of chromosomes 7, 12 and 18", "details": "1 µM", "experimental": "as §2\nFor FISH, MN counts, cGAS immunofluorescence and SA biomarkers, images were captured with the IN Cell Analyzer 2000 (GE Healthcare, UK) equipped with a Photometrics CoolSNAP K4 camera and driven by the GE IN Cell Analyzer 2000 v5.2 software, using a Nikon 20x/0.45 NA Plan Fluor objective and a Nikon 40x/0.95 NA Plan Fluor objective, respectively.\n1 µM of UMK57 was used to enhance kinesin-13 activity during the time periods indicated for each experiment.\nas §4"}, "[7]": {"test_system": "elderly human dermal fibroblasts (HDF)", "experiment": "Micronuclei (MN) counts", "details": "1 µM, 24-hour exposure (FIG. 4F)", "experimental": "as §2\nas §1, with “cGAS. For the analysis of SA biomarkers (53bpl/p21 and SA-β-galactosidase), fluorescence intensity thresholds were set and used consistently for all samples within each experiment.” for “cGAS.”"}, "[8]": {"test_system": "elderly human dermal fibroblasts (HDF)", "experiment": "53BP1/p21 double immunostaining senescence biomarkers", "details": "1 µM", "experimental": "as §2\nFor immunofluorescence, fibroblasts were grown on sterilized glass coverslips coated with 50 µg/ml fibronectin (F1141, Sigma-Aldrich) and fixed with 4% paraformaldehyde in PBS for 20 min. […]\nas §1, with “cGAS. For the analysis of SA biomarkers (53bpl/p21 and SA-β-galactosidase), fluorescence intensity thresholds were set and used consistently for all samples within each experiment.” for “cGAS.”"}}}
{"smiles": "Cc1ccc(-c2csc3ncnc(N4CCCC4)c23)cc1", "note": "[UMK57, 4-Pyrrolidin-1-yl-5-p-tolyl-thieno[2,3-d] pyrimidine]", "values": [{"measurement": "number of stable k-MT attachments in metaphase (calcium-stable k-fiber intensity)", "setting": "[1]; 24 hrs (FIG. 4B,C)", "value": "decreases the number of stable k-MT attachments in metaphase"}, {"measurement": "k-fiber intensity levels in metaphase", "setting": "[1]; 96 hours (FIG. 5B)", "value": "decreased k-fiber intensity levels"}, {"measurement": "effect on the mitotic progression of neonatal cultures", "setting": "[2]", "value": "no noticeable effect"}, {"measurement": "chromosome mis-segregation rate in binucleated (BN) cells", "setting": "[3]; 24 hrs, cytochalasin D (FIG. 4E)", "value": "decreases"}, {"measurement": "chromosome mis-segregation (BN cells FISH)", "setting": "[3]; 96 hours (FIG. 5D)", "value": "inhibited"}, {"measurement": "mitotic delay of elderly cells", "setting": "[4]; 1 µM, 96-hour treatment (FIG. 5A)", "value": "rescued"}, {"measurement": "concentration sufficient to rescue the increased mitotic duration in elderly cells", "setting": "[4]; increasing concentrations, 24-hour time-lapse (FIG. 4A)", "value": 1, "unit": "µM"}, {"measurement": "percentage of cells exhibiting SA-β-galactosidase activity", "setting": "[5]; 24-hour treatment (FIG. 4H)", "value": "partially rescue"}, {"measurement": "senescence markers: SA-β-gal positive cells", "setting": "[5]; 96 hrs (FIG. 5F)", "value": "partial rescue"}, {"measurement": "levels of aneuploidy (aneusomy index, interphase FISH)", "setting": "[6]; 24 hrs (FIG. 4D)", "value": "decreases the levels of aneuploidy"}, {"measurement": "aneuploidy (interphase FISH)", "setting": "[6]; 96 hours (FIG. 5C)", "value": "inhibited"}, {"measurement": "MN (micronuclei) levels", "setting": "[7]", "value": "partly decreased"}, {"measurement": "percentage of cells exhibiting the senescence biomarkers 53bp1+p21", "setting": "[8]; 24-hour treatment (FIG. 4G)", "value": "partially rescue"}, {"measurement": "senescence markers: 53BP1/p21 positive cells", "setting": "[8]; 96 hrs (FIG. 5E)", "value": "partial rescue"}]}
